Measurements taken from article PMC10296415, “Methyl-Thiol-Bridged Oxadiazole and Triazole Heterocycles as Inhibitors of NF-κB in Chronic Myelogenous Leukemia Cells” (Biomedicines, 2023).

Experiments:
[1] = test system: CML cells (KMB5, KCL22, LAMA84, and K562 cell lines); test: MTT cell viability assay, CML cells; type: cell-based, human; settings: 0, 5, 10, 15, 30, 50 µM, 24 h
Description: (§1) MCF-7 cells were purchased from Procell Life Science and Technology Co., Ltd., Wuhan, China, and cultured in MEM or Leibovitz’s L-15 medium containing 2% FBS. MCF-7 cells were maintained in a 5% CO2-humidified atmosphere at 37 °C. KCL22, LAMA84, and K562 cells were obtained from the American Type Culture Collection (Manassas, VA, USA). The KBM5 cell line was previously provided by Dr. Bharat Aggarwal (University of Texas M.D. Anderson Cancer Center, Houston, TX, USA). KBM5 cells were cultured in IMDM medium with 10% inactivated FBS and 1% penicillin-streptomycin. KCL22, LAMA84, and K562 cells were cultured in RPMI with 10% FBS and 1% penicillin-streptomycin antibiotics and maintained at 37 °C in a 5% CO2 chamber.
(§2) Cells (1 × 10^4 cells/well) were seeded on a 96-well plate and treated with 4c (0, 5, 10, 15, 30, 50 µM) for 24 h. After 24 h of treatment, 30 µL of MTT solution (2 mg/mL) for 2 h, followed by MTT lysis overnight. Cell viability was analyzed by measuring the absorbance of lysed MTT crystals using VARIOSKAN LUX (Thermo Fisher Scientific Inc., Waltham, MA, USA) at 570 nm.

NF-κB = test: EMSA of TNFα-induced NF-κB DNA binding in CML cells; type: cell-based, human; settings: 4c 0, 5, 15, 30 µM 2 h, then TNFα 0.5 nM 10 min; nuclear extracts
Description: CML cells (1 × 10^6 cells/well) were treated with indicated concentrations of 4c (0, 5, 15, 30 µM) for 2 h, then TNFα (0.5 nM) for 10 min. Nuclei extracts were prepared from whole cell pellets and incubated with NF-κB oligonucleotides (5′-[…]-3′ and 5′-[…]-3′), and Oct-1 (5′-[…]-3′ and 5′-[…] -[…]-3′) was used for loading control. The protein–DNA complex was run on a 5% gel, and the respective proteins were detected using the EMSA kit (Waltham, MA, USA).

[2] = test system: survivin, MMP-9, Bcl-2/xl, VEGF, COX-2, PARP; test: Western blot of NF-κB regulated proteins and PARP in CML cells; type: cell-based, human; settings: 4c 30 µM pretreatment, TNFα 0.5 nM for 0, 6, 12, 24 h
Description: (§3) CML cells were treated with compound 4c, harvested, and the cell lysates were obtained. The required proteins of our interest were separated on SDS-PAGE and transferred into the nitrocellulose membrane. The membrane was incubated with primary antibody and HRP-conjugated secondary antibody in a sequential manner. The ECL kit (EZ-Western Lumi Femto, DOZEN) was used to detect the respective proteins.

MCF-10A cells = test: Cytotoxicity assay, MCF-10A; type: cell-based; settings: Homo sapiens, MCF-10A; normal mammary epithelial cells
Description: as §2

[3] = MTT cell viability assay, PBMC; type: cell-based; settings: normal PBMC cells, 30 and 50 µM
Description: as §2

[4] = test system: COX-2 binding to p65 promoter; test: ChIP assay in CML cells; type: cell-based, human; settings: 4c 0, 5, 15, 30 µM
Description: CML cells (1 × 10^6 cells/well) were incubated with compound 4c (5, 15, 30 µM) for 24 h and immunoprecipitated with anti-NF-κB p65 antibody. RT-PCR was performed with COX-2 at 94 °C for 5 min, 94 °C for 30 s, 58 °C for 30 s, 72 °C for 30 s with 30 cycles, and extension at 72 for 7 min. All the experiments were performed 3 times as individual repeats.

[5] = test system: p-IKKα/β, p-IκBα, phospho-p65; test: Western blot of NF-κB complex subunits in CML cells; type: cell-based, human; settings: 4c 30 µM pre-treatment, TNFα 0.5 nM
Description: as §3

MCF-7 cell line = test: MTT cell viability assay, MCF-7; type: cell-based
Description: as §1, §2

NF-κB-p65 = test: Immunocytochemistry of p65 nuclear translocation in CML cells; type: cell-based, human; settings: 4c 30 µM 2 h, then TNFα 0.5 nM 10 min
Description: CML cells (1 × 10^6 cells/well) were treated with 4c (0 or 30 µM) for 2 h, followed by TNFα (0.5 nM) addition for 10 min. Further, the CML cells were fixed, permeabilized, and blocked with 5% BSA-PBS. The cells were visualized by using primary anti-p65 antibodies and secondary antibodies called Alexa Fluor® 594 donkey anti-rabbit IgG (H + L). Nuclei were stained with DAPI, and the immobilized cells were mounted with Fluorescent Mounting Medium (Golden Bridge International Labs, Mukilteo, WA, USA) and finally quantified using an Olympus FluoView FV1000 confocal microscope (Tokyo, Japan).

COc1ccc(Cc2nnc(SCc3cn(-c4ccc(Cl)c(Cl)c4)nn3)o2)cc1 [Compound 4c, 2-(((1-(3,4-Dichlorophenyl)-1H-1,2,3-triazol-4-yl)methyl)thio)-5-(4-methoxybenzyl)-1,3,4-oxadiazole]
cell viability in CML cells [1]: concentration-dependent loss of cell viability | binding of NF-κB to DNA induced by TNFα (NF-κB): substantially inhibited | cleavage of PARP [2]: enhanced the cleavage of PARP | expression of anti-apoptotic proteins (survivin, MMP-9, Bcl-2/xl, VEGF, COX-2) [2]: suppressed the expression of these proteins | IC50 (MCF-10A cells): > 100 µM | viability at 24 h [3]: > 80% | p65 binding to the COX-2 promoter [4]: markedly inhibited COX-2 binding to the p65 promoter | p-IKKα/β and p-IκBα induced by TNFα ([5]; cytoplasmic extracts): inhibited | phospho-p65 in nuclei ([5]; nuclear extracts): suppressed phospho-p65 in nuclei | IC50 (MCF-7 cell line; Homo sapiens, MCF7, viability of MCF-7 cell line): 9 to 16 µM | IC50 (MCF-7 cell line; viability of MCF-7 cell line): 7.4 ± 0.87 µM | translocation of NF-κB-p65 to nuclei (NF-κB-p65): suppressed the translocation of NF-κB-p65 to nuclei
